Blank lines part the entries; values can stand above or below the compound they belong to. The source made the active and inactive calls. The calls are words filed in the database; no cut-off is given here.
Tests used:
[1] = test system: mouse Bcrp1; assay: in vitro; conditions: dog
[2] = biological target: Serine/threonine-protein kinase mTOR (Homo sapiens, UniProt P42345); assay: Inhibition of human recombinant mTOR (1360 to 2549 amino acids) assessed as reduction in phosphorylation of (GFP)-4-EBP1 after 30 mins by FRET assay; conditions: read-out: Ki(app)
[3] = Clearance in po dosed CD-1 mouse; assay type: ADME, organism-based; conditions: in vivo
[4] = Half life in po dosed CD-1 mouse; assay type: ADME, organism-based; conditions: in vivo
[5] = Oral bioavailability in CD-1 mouse; assay type: ADME, organism-based; conditions: in vivo
[6] = Plasma protein binding in CD-1 mouse; assay type: ADME, cell-free; conditions: read-out: PPB (converted)
[7] = Ratio of drug level in brain to plasma in CD-1 mouse at 25 mg/kg, po at 1 hr; assay type: ADME, organism-based; design: dose 25 mg/kg, route oral; conditions: read-out: BPR
[8] = Ratio of drug level in brain to plasma in CD-1 mouse at 25 mg/kg, po at 6 hrs; assay type: ADME, organism-based; design: dose 25 mg/kg, route oral; conditions: read-out: BPR
[9] = test system: U-87MG ATCC; assay: Antitumor activity against PTEN deficient human U87MG cells xenografted in NCr nude mouse assessed as inhibition of tumor growth at 3 to 14 mg/kg, po qd for 24 days; assay type: functional, organism-based
[10] = Drug level in CD-1 mouse brain at 25 mg/kg, po administered as single dose measured after 6 hrs post dose; assay type: ADME, organism-based; design: dose 25 mg/kg, route oral; conditions: read-out: Drug uptake
[11] = Drug level in CD-1 mouse brain at 25 mg/kg, po administered as single dose measured after 1 hr post dose; assay type: ADME, organism-based; design: dose 25 mg/kg, route oral; conditions: read-out: Drug uptake
[12] = Cytotoxicity against human A172 cells incubated for 4 days; assay type: functional, cell-based; conditions: A 172, 96 h
[13] = Cytotoxicity against human Hs683 cells incubated for 4 days; assay type: functional, cell-based; conditions: Hs 683, 96 h
[14] = Cytotoxicity against human LN229 cells incubated for 4 days; assay type: functional, cell-based; conditions: LN-229, 96 h
[15] = test system: M059J; assay: Cytotoxicity against human M059J cells incubated for 4 days; assay type: functional, cell-based; conditions: 96 h
[16] = test system: SF-539; assay: Cytotoxicity against human SF539 cells incubated for 4 days; assay type: functional, cell-based; conditions: SF-539, 96 h
[17] = Cytotoxicity against human U87MG cells incubated for 4 days; assay type: functional, cell-based, U-87MG ATCC; conditions: U-87 MG, 96 h
[18] = test system: SF-268; assay: Cytotoxicity against human SF268 cells incubated for 4 days; assay type: functional, cell-based; conditions: SF-268, 96 h
[19] = test system: Mus musculus; assay: Inhibition of PI3K signaling in CD-1 mouse assessed as reduction in pAKT level at 25 mg/kg, po administered as single dose measured after 1 hr post dose by immunoblotting method; assay type: functional; conditions: CD-1, 1 h
[20] = Toxicity in PTEN deficient human U87MG cells xenografted in NCr nude mouse at dosed orally once daily for 24 days; assay type: organism-based, U-87MG ATCC; conditions: in vivo, po
[21] = test system: Mus musculus; assay: Toxicity in PTEN deficient human U87MG cells xenografted in NCr nude mouse assessed as loss in body weight at 6 mg/kg, po qd for 24 days; assay type: organism-based, U-87MG ATCC; design: dose 6 mg/kg, route oral; conditions: in vivo, 576 h
[22] = test system: Mus musculus; assay: Toxicity in PTEN deficient human U87MG cells xenografted in NCr nude mouse assessed as loss in body weight at 14 mg/kg, po qd for 24 days; assay type: organism-based, U-87MG ATCC; design: dose 14 mg/kg, route oral; conditions: in vivo, 576 h
[23] = test system: Mus musculus; assay: Toxicity in PTEN deficient human U87MG cells xenografted in NCr nude mouse assessed as loss in body weight at 18 mg/kg, po qd for 24 days; assay type: organism-based, U-87MG ATCC; design: dose 18 mg/kg, route oral; conditions: in vivo, 576 h
[24] = species on record: Mus musculus; conditions: NCr, U-87MG ATCC, 10 mg/kg
[25] = species on record: Mus musculus; conditions: NCr, U-87MG ATCC, 40 mg/kg
[26] = species on record: Mus musculus; conditions: NCr, U-87MG ATCC, 3 mg/kg
[27] = species on record: Mus musculus; conditions: NCr, U-87MG ATCC, 10 mg/kg; remark: listed apart in the source
[28] = species on record: Mus musculus; conditions: NCr, U-87MG ATCC, 40 mg/kg; remark: listed apart in the source
[29] = species on record: Mus musculus; conditions: NCr, U-87MG ATCC, 3 mg/kg; remark: listed apart in the source
[30] = Ratio of drug level in brain to plasma in CD-1 mouse at 10 mg/kg, po measured at 0.5 hrs; assay type: ADME, organism-based; design: dose 10 mg/kg, route oral; conditions: read-out: BPR

efflux ratio at 2 h, 5 µM [1]: 7.1
Structure (SMILES): Cc1c(C2(O)COC2)sc2c(N3CCOCC3)nc(-c3cnc(N)nc3)nc12

efflux ratio at 2 h, 5 µM [1]: 22
Structure (SMILES): Nc1ncc(-c2nc(N3CCOCC3)c3sc(C4CNC4)cc3n2)cn1

Kp at 0.5 h [30]: < 0.05
Structure (SMILES): CS(=O)(=O)N1CCN(Cc2cc3nc(-c4cccc5[nH]ncc45)nc(N4CCOCC4)c3s2)CC1 [PICTILISIB]

The next lines start with the compound.

Structure (SMILES): COCCOC1(c2cc3nc(-c4cnc(N)nc4)nc(N4CCOCC4)c3s2)COC1
efflux ratio at 2 h, 5 µM [1]: 1.4

Structure (SMILES): CC(F)(F)c1cc2nc(-c3cnc(N)nc3)nc(N3CCOCC3)c2s1
efflux ratio at 2 h, 5 µM [1]: 1.7

Structure (SMILES): CC1(C)COC1c1cc2nc(-c3cnc(N)nc3)nc(N3CCOCC3)c2s1 (stereo unspecified)
Ki [2]: 21 nM
CL/F [3]: 52 mL/min/kg
half-life [4]: 3.3 h
bioavailability [5]: 46%
fraction unbound [6]: 0.087
Kp at 1 h [7]: 0.9
Kp at 6 h [8]: 1.2
efflux ratio at 2 h, 5 µM [1]: 1.2

Structure (SMILES): CC(=O)N1CC(c2cc3nc(-c4cnc(N)nc4)nc(N4CCOCC4)c3s2)C1
efflux ratio at 2 h, 5 µM [1]: 43

Structure (SMILES): COC(C)(C)c1cc2nc(-c3cnc(N)nc3)nc(N3CCOCC3)c2s1
TGI [9]: Dose-dependent effect
concentration at 6 h [10]: 350 nM
concentration at 1 h [11]: 2140 nM
CL/F [3]: 20 mL/min/kg
half-life [4]: 20 h
bioavailability [5]: 25%
fraction unbound [6]: 0.102
Kp at 1 h [7]: 1
Kp at 6 h [8]: 0.9
EC50 [12]: 380 nM
EC50 [13]: 270 nM
EC50 [14]: 400 nM
EC50 [15]: 590 nM
EC50 [16]: 340 nM
EC50 [17]: 290 nM
EC50 [18]: 1000 nM
inhibition in vivo at 25 mg/kg [19]: 39%
MTD at 576 h [20]: 14 mg/kg
Activity [21]: Non-toxic
Activity [22]: < 15%
Activity [23]: Toxic
inhibition [24]: Active
inhibition [25]: Active
inhibition [26]: Active
inhibition [27]: Active
inhibition [28]: Active
inhibition [29]: Active

From ChEMBL document CHEMBL2177093, “The design and identification of brain penetrant inhibitors of phosphoinositide 3-kinase α” (J Med Chem, 2012)
